From ChEMBL document CHEMBL1201862, “PubChem BioAssay data set” (2004)
Activity calls are given as the source filed them.

Assays:
[1] = biological target: T1, Ubiquitin-conjugating enzyme E2 N (Homo sapiens, UniProt P61088); format: functional;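 also: Dose-response confirmation in a TR-FRET assay detecting UBC13-driven polyubiquitin chain formation, inhibition measured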
T1 sequence (P61088 whole entry): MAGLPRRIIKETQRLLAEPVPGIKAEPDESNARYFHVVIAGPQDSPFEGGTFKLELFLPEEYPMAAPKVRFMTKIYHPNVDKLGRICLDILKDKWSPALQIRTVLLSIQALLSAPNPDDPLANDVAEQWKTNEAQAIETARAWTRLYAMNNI

[2] = biological target: T2, DNA repair and recombination protein RAD54-like (Homo sapiens, UniProt Q92698); assay: RAD54 Holliday junction migration blockers – biochemical, fluorescence, cherry-picked samples, dose series, confirmation (AID 651657); format: functional
T2 sequence (Q92698 whole entry): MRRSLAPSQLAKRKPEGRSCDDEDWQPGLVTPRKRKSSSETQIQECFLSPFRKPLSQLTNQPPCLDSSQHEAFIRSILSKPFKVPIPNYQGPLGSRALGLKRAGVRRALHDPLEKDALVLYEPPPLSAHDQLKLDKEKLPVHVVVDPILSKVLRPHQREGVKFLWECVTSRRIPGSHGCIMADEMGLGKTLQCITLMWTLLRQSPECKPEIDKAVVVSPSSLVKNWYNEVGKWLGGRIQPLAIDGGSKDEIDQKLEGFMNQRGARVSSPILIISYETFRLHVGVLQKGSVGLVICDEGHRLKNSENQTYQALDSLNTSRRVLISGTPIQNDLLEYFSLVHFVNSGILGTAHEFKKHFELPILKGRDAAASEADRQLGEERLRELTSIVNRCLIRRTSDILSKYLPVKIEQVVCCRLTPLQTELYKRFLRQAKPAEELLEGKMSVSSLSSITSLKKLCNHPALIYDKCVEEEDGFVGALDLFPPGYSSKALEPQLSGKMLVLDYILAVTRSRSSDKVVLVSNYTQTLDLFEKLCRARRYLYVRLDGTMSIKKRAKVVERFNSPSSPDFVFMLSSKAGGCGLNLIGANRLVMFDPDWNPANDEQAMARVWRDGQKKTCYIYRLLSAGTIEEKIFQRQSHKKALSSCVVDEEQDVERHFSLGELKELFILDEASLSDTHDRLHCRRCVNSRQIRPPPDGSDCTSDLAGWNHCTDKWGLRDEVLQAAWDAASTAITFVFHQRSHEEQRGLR

Caspase-3 = biological target: T3, Caspase-3 (Homo sapiens, UniProt P42574); format: functional;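 also: Dose-response selectivity test against caspase-3 for candidate inhibitors of sentrin-specific proteases (SENPs)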
T3 sequence (P42574 whole entry): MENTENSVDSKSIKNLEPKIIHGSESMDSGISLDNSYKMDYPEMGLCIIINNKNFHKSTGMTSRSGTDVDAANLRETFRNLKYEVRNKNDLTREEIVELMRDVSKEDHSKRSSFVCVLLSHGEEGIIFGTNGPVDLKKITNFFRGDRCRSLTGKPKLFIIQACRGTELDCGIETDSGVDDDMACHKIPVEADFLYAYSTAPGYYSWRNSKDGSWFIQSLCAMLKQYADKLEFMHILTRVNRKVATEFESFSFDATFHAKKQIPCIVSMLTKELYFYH

[3] = biological target: T4, Sentrin-specific protease 7 (Homo sapiens, UniProt Q9BQF6); format: functional;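 also: Luminescence-based dose-response confirmation of ultra-high-throughput screening hits, measuring inhibition of SENP7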
T4 sequence (Q9BQF6 whole entry): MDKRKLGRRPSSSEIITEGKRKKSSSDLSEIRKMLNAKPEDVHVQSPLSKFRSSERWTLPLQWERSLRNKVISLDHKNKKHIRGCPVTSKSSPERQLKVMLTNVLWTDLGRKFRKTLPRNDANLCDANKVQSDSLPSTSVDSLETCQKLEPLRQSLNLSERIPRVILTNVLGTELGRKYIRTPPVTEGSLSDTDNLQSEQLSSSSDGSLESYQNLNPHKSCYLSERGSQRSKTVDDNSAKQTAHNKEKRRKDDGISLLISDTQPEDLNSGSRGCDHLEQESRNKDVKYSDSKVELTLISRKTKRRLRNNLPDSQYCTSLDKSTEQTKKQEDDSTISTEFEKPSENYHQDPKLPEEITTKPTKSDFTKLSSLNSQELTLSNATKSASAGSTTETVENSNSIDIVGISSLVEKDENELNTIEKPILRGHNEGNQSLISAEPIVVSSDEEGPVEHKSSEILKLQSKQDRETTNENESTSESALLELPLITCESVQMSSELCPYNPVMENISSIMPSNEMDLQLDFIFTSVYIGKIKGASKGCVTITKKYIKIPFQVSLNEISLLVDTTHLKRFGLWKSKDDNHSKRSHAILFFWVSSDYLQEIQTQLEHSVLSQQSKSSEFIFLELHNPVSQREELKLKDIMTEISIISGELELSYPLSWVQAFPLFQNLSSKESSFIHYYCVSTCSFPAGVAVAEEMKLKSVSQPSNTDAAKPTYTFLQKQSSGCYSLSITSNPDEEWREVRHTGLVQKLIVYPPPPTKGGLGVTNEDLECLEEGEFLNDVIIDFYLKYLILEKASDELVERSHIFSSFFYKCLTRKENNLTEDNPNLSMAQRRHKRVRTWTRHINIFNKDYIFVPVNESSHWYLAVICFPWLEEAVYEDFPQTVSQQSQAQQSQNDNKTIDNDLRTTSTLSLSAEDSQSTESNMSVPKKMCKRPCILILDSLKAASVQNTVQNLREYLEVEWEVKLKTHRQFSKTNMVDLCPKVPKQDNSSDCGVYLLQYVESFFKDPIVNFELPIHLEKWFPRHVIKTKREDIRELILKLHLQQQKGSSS

[4] = biological target: T5, Sentrin-specific protease 8 (Homo sapiens, UniProt Q96LD8); format: functional;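 also: luminescence read-out of SENP8 inhibition, dose-response confirmation following an ultra-high-throughput screen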
T5 sequence (Q96LD8 whole entry): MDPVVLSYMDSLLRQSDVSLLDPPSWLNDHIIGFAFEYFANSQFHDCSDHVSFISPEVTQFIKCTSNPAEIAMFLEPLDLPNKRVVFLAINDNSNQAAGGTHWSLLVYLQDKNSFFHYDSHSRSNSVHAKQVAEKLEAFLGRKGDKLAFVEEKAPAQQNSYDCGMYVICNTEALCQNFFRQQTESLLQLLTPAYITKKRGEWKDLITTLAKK

[5] = biological target: T6, Sentrin-specific protease 6 (Homo sapiens, UniProt Q9GZR1); format: functional;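 also: Luminescence-based dose-response confirmatory assay of SENP6 inhibition, following up an ultra-high-throughput screen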
T6 sequence (Q9GZR1 whole entry): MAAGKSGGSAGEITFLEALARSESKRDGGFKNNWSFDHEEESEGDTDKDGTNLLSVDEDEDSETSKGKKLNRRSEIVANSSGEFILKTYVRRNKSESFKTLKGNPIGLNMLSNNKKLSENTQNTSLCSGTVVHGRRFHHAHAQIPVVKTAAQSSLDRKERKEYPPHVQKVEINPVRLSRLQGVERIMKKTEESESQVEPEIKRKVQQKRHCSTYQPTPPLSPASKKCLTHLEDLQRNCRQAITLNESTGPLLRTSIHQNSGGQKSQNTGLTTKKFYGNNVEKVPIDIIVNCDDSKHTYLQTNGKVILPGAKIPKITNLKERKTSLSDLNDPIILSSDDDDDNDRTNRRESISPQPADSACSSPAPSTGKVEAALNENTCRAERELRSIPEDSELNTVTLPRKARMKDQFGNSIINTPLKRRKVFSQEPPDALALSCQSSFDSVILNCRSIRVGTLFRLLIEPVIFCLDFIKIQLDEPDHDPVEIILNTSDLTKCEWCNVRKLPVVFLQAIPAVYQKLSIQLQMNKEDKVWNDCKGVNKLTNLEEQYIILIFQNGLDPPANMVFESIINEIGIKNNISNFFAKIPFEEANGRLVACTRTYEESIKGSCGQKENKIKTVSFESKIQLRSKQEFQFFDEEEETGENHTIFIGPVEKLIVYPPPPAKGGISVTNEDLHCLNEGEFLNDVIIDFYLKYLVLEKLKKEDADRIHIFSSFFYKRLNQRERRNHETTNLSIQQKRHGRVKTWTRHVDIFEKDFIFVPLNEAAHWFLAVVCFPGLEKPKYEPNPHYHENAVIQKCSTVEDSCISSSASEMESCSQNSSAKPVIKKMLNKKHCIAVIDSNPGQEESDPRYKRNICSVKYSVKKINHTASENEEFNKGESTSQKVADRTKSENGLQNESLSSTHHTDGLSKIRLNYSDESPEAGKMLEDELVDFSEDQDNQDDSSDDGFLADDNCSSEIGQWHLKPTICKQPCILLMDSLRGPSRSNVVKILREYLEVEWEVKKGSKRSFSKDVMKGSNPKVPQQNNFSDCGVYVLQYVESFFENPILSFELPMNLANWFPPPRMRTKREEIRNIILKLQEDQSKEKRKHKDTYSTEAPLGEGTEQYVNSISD

[6] = biological target: Photoreceptor-specific nuclear receptor (Homo sapiens, UniProt Q9Y5X4); format: functional, cell-based;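 also: CHO-S cells with Gal4-NCOR and VP16-NR2E3 two-hybrid luciferase reporter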
[7] = biological target: T7, Polyadenylate-binding protein 1 (Homo sapiens, UniProt P11940); assay: MLLE domain peptide-binding blockers, IC50 – biochemical, fluorescence polarization, FITC-PAM2 peptide, dose response (AID 602259); format: functional; details: read-out: IC50_Mean
[8] = biological target: T7, Polyadenylate-binding protein 1; assay: MLLE binding blockers, Cy5 peptide tracer – biochemical, fluorescence polarization, Cy5-PAM2 peptide, secondary, miRNA deadenylation inhibitor project, dose response (AID 602260); format: functional; details: read-out: IC50_Mean
[9] = biological target: T8, Mitochondrial peptide methionine sulfoxide reductase (Bos taurus, UniProt P54149); assay: Absorbance-based biochemical high throughput dose response assay for activators of Methionine sulfoxide reductase A (MsrA).; format: functional
T8 sequence (P54149 whole entry): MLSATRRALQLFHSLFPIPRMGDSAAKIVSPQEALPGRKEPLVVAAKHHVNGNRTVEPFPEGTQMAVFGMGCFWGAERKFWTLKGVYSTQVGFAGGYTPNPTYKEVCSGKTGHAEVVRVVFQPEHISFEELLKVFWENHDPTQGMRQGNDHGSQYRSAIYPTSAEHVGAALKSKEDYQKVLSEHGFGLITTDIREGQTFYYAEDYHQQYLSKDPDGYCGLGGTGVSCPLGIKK

[10] = biological target: T9, Endoribonuclease toxin MazF (Escherichia coli K-12, UniProt P0AE70); assay: activation of MazEF endoribonuclease cleavage – biochemical, fluorescence, single-stranded RNA substrate, uHTS hits, dose response (AID 588481); format: functional
T9 sequence (P0AE70 whole entry): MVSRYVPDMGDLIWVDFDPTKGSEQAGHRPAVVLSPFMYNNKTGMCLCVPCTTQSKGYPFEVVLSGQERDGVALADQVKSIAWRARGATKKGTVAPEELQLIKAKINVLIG

[11] = biological target: T9, Endoribonuclease toxin MazF; assay: substrate-only fluorescence increase artefacts – biochemical, single-stranded RNase substrate, counter-screen for MazEF activator project, dose response (AID 588502); format: functional
[12] = viability of HCT116 lacking mutant beta-catenin – cell-based, human colon tumor, dose response (AID 1045); format: functional;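 also: HCT116 colon tumor cells with beta catenin knocked out; cells exposed to compound for 60 hours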
Vero = assay: cells; format: functional; details: Chlorocebus sabaeus
[13] = viability of PTEN-deleted HCT116 cells – cell-based, HCT116 PTEN knockout, dose response (AID 1047); format: functional;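 also: HCT116 colon tumor cells with PTEN knocked out; cells exposed to compound for 60 hours before readout; potency for loss of cell viability measured by luminescence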
[14] = NIH3T3 cell viability loss – ATP luminescence, mouse fibroblasts, counter-screen, dose response (AID 2010); format: functional, cell-based;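 also: cells exposed to compound for about 90 hours before reading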
[15] = Trypanosoma cruzi growth suppression in host cells – NIH3T3 host cells, beta-gal luminescence, confirmation (AID 2044); format: functional, cell-based;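 also: intracellular parasites grown in NIH/3T3 mouse fibroblasts as host cells; luminescent beta-galactosidase reporter signal from transgenic T. cruzi replicating inside host cells; inhibitors lower the luminescence signal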
cells = format: functional

T7 sequence (P11940 whole entry, the tested form may be a part): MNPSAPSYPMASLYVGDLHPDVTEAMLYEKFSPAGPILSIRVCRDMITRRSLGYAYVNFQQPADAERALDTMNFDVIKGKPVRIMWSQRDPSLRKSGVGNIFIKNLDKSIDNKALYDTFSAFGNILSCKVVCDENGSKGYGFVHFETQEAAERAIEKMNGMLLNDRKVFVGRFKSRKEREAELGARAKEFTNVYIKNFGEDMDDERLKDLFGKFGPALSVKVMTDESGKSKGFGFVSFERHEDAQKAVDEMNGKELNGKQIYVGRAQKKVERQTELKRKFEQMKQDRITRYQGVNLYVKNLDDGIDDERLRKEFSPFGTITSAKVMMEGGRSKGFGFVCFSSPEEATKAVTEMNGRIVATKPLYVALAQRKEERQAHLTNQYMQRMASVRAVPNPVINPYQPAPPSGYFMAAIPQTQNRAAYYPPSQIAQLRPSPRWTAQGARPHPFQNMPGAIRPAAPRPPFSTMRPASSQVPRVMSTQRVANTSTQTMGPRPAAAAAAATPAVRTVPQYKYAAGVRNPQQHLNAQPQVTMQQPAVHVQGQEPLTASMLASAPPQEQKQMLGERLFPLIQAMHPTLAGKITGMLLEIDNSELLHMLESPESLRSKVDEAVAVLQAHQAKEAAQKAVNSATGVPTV
Photoreceptor-specific nuclear receptor, sequence (Q9Y5X4 whole entry, the tested form may be a part): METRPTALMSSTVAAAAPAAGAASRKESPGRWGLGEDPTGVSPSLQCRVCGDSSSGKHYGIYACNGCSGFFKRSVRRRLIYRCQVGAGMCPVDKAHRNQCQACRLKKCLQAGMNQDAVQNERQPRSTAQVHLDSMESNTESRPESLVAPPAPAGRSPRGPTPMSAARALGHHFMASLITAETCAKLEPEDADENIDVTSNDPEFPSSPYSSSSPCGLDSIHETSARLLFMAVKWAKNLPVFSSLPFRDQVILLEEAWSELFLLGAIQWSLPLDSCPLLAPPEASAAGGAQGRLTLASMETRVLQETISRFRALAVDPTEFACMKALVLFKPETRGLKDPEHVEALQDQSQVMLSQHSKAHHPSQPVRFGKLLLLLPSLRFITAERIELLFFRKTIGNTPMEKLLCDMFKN

CCCCN(CC)CCCNC(=O)c1cc2c(=O)n(C)c3ccccc3c2n1C
IC50 [1]: > 20 µM (inactive)
AC50 [2]: 22.2 µM (active)

Brc1ccc(NN=Nc2ccccc2)cc1
IC50 (Caspase-3): 27.1 µM (active)
IC50 [3]: 4.66 µM (active)
IC50 [4]: 10.9 µM (active)
IC50 [5]: 11.2 µM (active)

O=C(c1cc(S(=O)(=O)N2CCN(c3ccccc3)CC2)ccc1Cl)N1CCCCCCC1
IC50 [6]: 5.5 µM (active)

COCc1cc(=O)[nH]c(=S)[nH]1
IC50 [7]: > 66 µM (inactive)
IC50 [8]: > 66 µM (inactive)
EC50 [9]: > 104 µM (inactive)

CCOC(=O)C1=C(C)N=c2s/c(=C/c3ccccc3)c(=O)n2C1c1ccc(OC)c(OC)c1 (configuration not stated)
EC50 [10]: > 99 µM (inactive)
EC50 [11]: > 99 µM (inactive)

Cc1ccc(-c2nc(N(C)C3CCN(C)CC3)c3ccccc3n2)cc1
EC50 [12]: 6.51 µM (active)
CC50 (Vero): 16.3 µM (active)
EC50 [13]: 6.77 µM (active)
AC50 [2]: 3.93 µM (active)

COc1cccc(NC(=O)c2ccc(-c3ccc([N+](=O)[O-])cc3)o2)c1
EC50 [10]: > 99 µM (inactive)
EC50 [11]: > 99 µM (inactive)

O=C(Nc1ccccc1)c1ccc(-c2ccccc2Cl)o1
IC50 (Caspase-3): 74.3 µM (active)
IC50 [3]: 4.47 µM (active)
IC50 [4]: > 100 µM (inactive)
IC50 [5]: > 100 µM (inactive)

CCCCC(=O)NNC(=S)NC(=O)c1ccc([N+](=O)[O-])cc1
EC50 [9]: > 104 µM (inactive)

O=C(OCC(=O)N1CCC(c2ccccc2)=N1)c1ccc([N+](=O)[O-])s1
IC50 (Caspase-3): 28.2 µM (active)
EC50 [14]: > 30 µM (not active)
EC50 [15]: 0.809 µM (active)
IC50 [3]: 18.9 µM (active)
IC50 [4]: 5.92 µM (active)
IC50 [5]: 7.19 µM (active)
IC50 (cells): 1.13 µM (active)

COc1ccc(-c2cc(C)no2)cc1S(=O)(=O)N1CCOc2ccc(C)cc21
EC50 [10]: > 99 µM (inactive)
EC50 [11]: > 99 µM (inactive)
